{
  "source": "patent US20210308211A1",
  "about": "“METHOD OF TREATING VIRAL INFECTIONS” (priority 2020, published 2021)",
  "key": {"[1]": {"tested_on": "CD4+ T splenocytes", "assay": "Collagen-induced arthritis (CIA) DBA/1 mice, ex vivo T splenocyte proliferation with CII (CFSE, FACS)", "format": "in vivo, mouse", "method": "Next, P140 peptide was administered in a model of mice that develop a RA-like disease (we anticipated to use this mouse model as a negative control of MRL/lpr-lupus prone mice). This model, called collagen-induced arthritis (CIA) mouse model, is the most commonly studied autoimmune model of RA. In this model, autoimmune arthritis is induced by immunizing DBA/1 mice with an emulsion of complete Freund's adjuvant (CFA) and type II collagen (CII), and typically, the first signs of arthritis appear in 21-28 days after immunization (Brand et al., 2007). CIA shares several pathological features with human RA, and CII is a major protein in cartilage, the target tissue of RA. Pathological features include synovial hyperplasia, mononuclear cell infiltration, and cartilage degradation. Susceptibility in these mice is linked to the expression of specific MHC class II genes, DBA/1 have H-2^q haplotype.\nP140 peptide was thus administrated intravenously to DBA/1 mice at day −1, +7, +14 and +20 in a setting close to the one we used in MRL/lpr mice (100 μg/injection/mouse). CII in CFA was injected at days +1 and +21 (200 μg, intradermal route). Mouse weight and their clinical score were followed using very classical procedure. Biological parameters were also evaluated (i.e. T cell response, antibody response, joint histology, etc)."}, "[2]": {"tested_on": "MRL/lpr B cells", "assay": "Cellular uptake of fluorescent P140 in MRL/lpr B cells (flow cytometry, confocal)", "format": "cell-based, mouse", "text": "FIG. 8. Cellular uptake of fluorescent P140 peptide in 5.4% mannitol or 10% trehalose in MRL/lpr B cells and Raji cells as visualized by flow cytometry. B cells were from 12-14 week-old MRL/lpr mice (primary cells); Raji cells are an established cell line derived in 1963 from B-lymphocyte of a patient with Burkitt's lymphoma.\nFIG. 9. Confocal images of B cells of FIG. 10. All confocal images were taken in the same microscopic settings. Rab9 (red) identifies the late endosomal compartment where P140 localizes before homing into lysosomes DAPI (blue) identifies DNA.\nFor P140 peptide activity, HSC70 binding and endocytosis appear to be important. It is believed that endocytosis must occur through the clathrin route. This implies that peptide+excipient should have a size in the range of 30 to 500 nm in diameter. For example P140+mannitol are in the 100 nm region whereas P140+trehalose are below 10 nm and therefore not effective binding to HSC70. […] B cells were from 12-14 week-old MRL/lpr mice (primary cells); Raji cells are an established cell line derived in 1963 from B-lymphocyte of a patient with Burkitt's lymphoma. […] The confocal images show the late endosomal compartment where P140 localizes before homing into lysosomes; DAPI identifies DNA."}, "[3]": {"tested_on": "C57BL/6 mice", "assay": "DSS-induced colonic inflammation model", "format": "in vivo, mouse", "text": "Normal mice (C57BL/6; 7 week-old; males) have received the P140 peptide ([…], iv route; 10 mice) or saline only (control group; 10 mice) at days −2 and −1. At day 0, dextran sodium sulfate (DSS; 2-3%) was administrated to induce the disease.\nAnimals were examined every day for body weight loss, stool consistency, diarrhea, and blood in the feces. The animals were sacrificed around day 14 or at any time if they are very sick (loss >25% body weight). Statistics: Mann-Whitney (exact)"}, "[4]": {"tested_on": "C57BL/6 mice", "assay": "K/B×N serum transfer arthritis, curative protocol", "format": "in vivo, mouse", "method": "(§1) The TCR transgenic mice expressing the KRN and the MHC class II A^g7 molecule (K/B×N mice) have developed a severe inflammatory arthritis. The administration of serum of these mice to healthy recipient mice causes inflammatory arthritis over a period of about 15 days with a peak ignition around day 7 post-injection.\n(§2) Two mouse serum administrations from K/B×N were performed (day 0 and day 2). The injection of serum (100 μl/mouse) is performed by intra-peritoneal (ip) injection in mice C57BL/6 (or B6) for 8 weeks (n=10); untreated mouse (n=10).\n(§3) The P140 peptide (100 μg/100 μl; iv retro-orbital) was administered as follows:\n(§4) Curative treatment: Injection at day 1 and day 4, to guide the peak of inflammatory disease. Preventive treatment: Injection at day −7 and day −2. Bleeding S0 (at day 0) is followed by bloodletting conducted every six days to dispose of serum. The study ends when inflammation has returned to its basal level, to around day 20 (see FIG. 19).\n(§5) During the peak of inflammation, every day the animals are evaluated, and swelling score of articulation is established. It is ranged from 0 to 4 and based on a joint observation of the animal. In practice, this score is given for each leg (4 values) and these values are added together to get a general score that ranges from 0 to 16 (FIG. 20)."}, "[5]": {"tested_on": "C57BL/6 mice", "assay": "K/B×N serum transfer arthritis, preventive protocol", "format": "in vivo, mouse", "method": "as §1, §2, §3, §4, §5"}, "[6]": {"tested_on": "MRL/lpr B cells", "settings": "cited from earlier work"}, "[7]": {"tested_on": "Lewis rats", "assay": "Chronic-EAN rat model of CIDP", "settings": "100 μg/rat i.p.", "protocol": "Male Lewis rats, 7-8 weeks old, weighing 250-270 g, purchased from Charles River (Domaine des Oncins, L′Arbresle, France) were used.\nBody weight and clinical scores are assessed daily until 60 days post-immunization (dpi). Severity of paresis is graded as follows: 0=no illness; 1=flaccid tail; 2=moderate paraparesis; 3=severe paraparesis; 4=tetraparesis; 5=death.\n100 μg/rat P140 peptide in 500 μL water/saline (1:10) were intraperitoneally injected at 5, 7, 9, 13 dpi and 3 times per week from 22 dpi until the end of the study."}},
  "note": "Non-standard residues stand in square brackets, D forms with d. Residues, ends and D or L forms follow the SMILES beside them. pS = N[C@@H](COP(=O)(O)O)C(=O)O",
  "data": [
    {"smiles": "CC[C@H](C)[C@H](NC(=O)[C@H](Cc1ccccc1)NC(=O)[C@H](C)NC(=O)[C@H](Cc1ccc(O)cc1)NC(=O)CNC(=O)[C@H](CCCNC(=N)N)NC(=O)[C@@H]1CCCN1C(=O)[C@H](CCCCN)NC(=O)CNC(=O)[C@H](COP(=O)(O)O)NC(=O)[C@H](CCCNC(=N)N)NC(=O)[C@H](CCCCN)NC(=O)[C@H](CO)NC(=O)[C@H](Cc1ccc(O)cc1)NC(=O)[C@@H](NC(=O)[C@H](CCSC)NC(=O)[C@H](Cc1c[nH]cn1)NC(=O)[C@@H](NC(=O)[C@@H](N)CCCNC(=N)N)[C@@H](C)CC)C(C)C)C(=O)N[C@@H](CCC(=O)O)C(=O)N[C@@H](Cc1ccc(O)cc1)C(=O)O", "note": "[Compound P140] (H-RIHMVYSKR[pS]GKPRGYAFIEY-OH; N-terminus and C-terminus assumed)", "values": [
      {"measurement": "CD4+ T splenocytes proliferation", "setting": "[1]; DBA/1 CIA mice, 100 μg/injection i.v. day −1, +7, +14, +20, ex vivo 100 μg CII/mL", "result": "strongly diminished"},
      {"measurement": "CD8+ T cells proliferation", "setting": "[1]; same conditions as CD4+ T cells", "result": "No effect"},
      {"measurement": "Cellular uptake (flow cytometry)", "setting": "[2]; fluorescent peptide in 10% trehalose compared with 5.4% mannitol, MRL/lpr B cells", "result": "Much less cellular uptake"},
      {"measurement": "Entry into B cells (confocal microscopy)", "setting": "[2]; peptide in trehalose compared with mannitol", "result": "enters B cells much less"},
      {"measurement": "DAI", "setting": "[3]; P140 i.v. days −2 and −1 vs saline, p=0.5386", "result": "Little difference"},
      {"measurement": "Colon size", "setting": "[3]; P140 i.v. days −2 and −1 vs saline, reflects decrease of inflammation, p=0.0011", "result": "significant increase"},
      {"measurement": "Body weight", "setting": "[3]; between the two groups", "result": "No difference"},
      {"measurement": "Day at which blood appeared in the feces", "setting": "[3]; control groups day +6", "result": "+8 day"},
      {"measurement": "Weight loss", "setting": "[4]; curative protocol (injection day 1 and day 4), from day 2, NaCl 10%", "result": 15, "unit": "%"},
      {"measurement": "Weight gain", "setting": "[4]; curative protocol, between day 5 and the end of the study, controls 5%", "result": 20, "unit": "%"},
      {"measurement": "Inflammation score, maximum", "setting": "[4]; curative protocol, per rear leg, same for controls", "result": "~1.5"},
      {"measurement": "Clinical signs (swelling joints, weight loss, inflammation score) (in words)", "setting": "[5]; K/B×N model", "result": "tend to be attenuated"},
      {"measurement": "Weight loss", "setting": "[5]; preventive protocol (injection day −7 and day −2), day 1 to day 7, controls 10%", "result": 5, "unit": "%"},
      {"measurement": "Increase in size of joints, right back legs", "setting": "[5]; preventive protocol, day 0 to day 7, control mice about 22%", "result": "around 12%"},
      {"measurement": "Increase in size of the joint, left hind paws", "setting": "[5]; preventive protocol, day 0 to day 7, controls about 30%", "result": "about 15%"},
      {"measurement": "General inflammation score, maximum", "setting": "[5]; preventive protocol, sum of four legs, controls around 7, p=0.0156", "result": "≤ 5"},
      {"measurement": "Increase in size of articulation, left front leg", "setting": "[5]; preventive protocol, controls 45%, P=0.0397", "result": 20, "unit": "%"},
      {"measurement": "Swelling in the joints of right front leg", "setting": "[5]; preventive protocol, controls nearly 45%, p=0.0069", "result": "+20%"},
      {"measurement": "Autophagy markers SQSTM1 and MAP1LC3", "setting": "[6]; MRL/lpr B cells after P140 treatment (Page et al., 2011)", "result": "accumulation"},
      {"measurement": "Expression of HSPA8 and LAMP-2A", "setting": "[6]; MRL/lpr B cells after treating mice (Page et al., 2011; Macri et al., in press)", "result": "down-regulated"},
      {"measurement": "Chronicity of the disease", "setting": "[7]", "result": "seems abolish the chronicity"},
      {"measurement": "Maximal clinical scores", "setting": "[7]; compared to untreated rats", "result": "decreased"},
      {"measurement": "Onset of the disease", "setting": "[7]; compared to untreated rats", "result": "delayed"},
      {"measurement": "Weight loss during the disease course", "setting": "[7]; compared to untreated rats", "result": "less important"}
    ]}
  ]
}
